Assays:
[1] = species: Mus musculus; experiment: Effective dose to induce antinociception in mouse determined in hotplate test; format: functional
[2] = species: Mus musculus; experiment: Effective dose to induce spontaneous activity in mouse was determined; format: functional
[3] = species: Mus musculus; experiment: Effective dose to induce hypothermia in mouse was determined; format: functional
[4] = species: Mus musculus; experiment: Effective dose to induce antinociception in mouse determined in tail-flick test; format: functional
[5] = tested on: Mus musculus; experiment: Anesthetic effect in hotplate test in mouse at 0.1 ug/kg; format: functional
[6] = target: Neuronal acetylcholine receptor subunit alpha-7 (Rattus norvegicus, UniProt Q05941); experiment: Inhibition of [125I]-iodo-MLA binding to Nicotinic acetylcholine receptor alpha-7 in rat cerebral cortex; format: tissue-based
Sequence of Neuronal acetylcholine receptor subunit alpha-7 (Q05941 whole entry): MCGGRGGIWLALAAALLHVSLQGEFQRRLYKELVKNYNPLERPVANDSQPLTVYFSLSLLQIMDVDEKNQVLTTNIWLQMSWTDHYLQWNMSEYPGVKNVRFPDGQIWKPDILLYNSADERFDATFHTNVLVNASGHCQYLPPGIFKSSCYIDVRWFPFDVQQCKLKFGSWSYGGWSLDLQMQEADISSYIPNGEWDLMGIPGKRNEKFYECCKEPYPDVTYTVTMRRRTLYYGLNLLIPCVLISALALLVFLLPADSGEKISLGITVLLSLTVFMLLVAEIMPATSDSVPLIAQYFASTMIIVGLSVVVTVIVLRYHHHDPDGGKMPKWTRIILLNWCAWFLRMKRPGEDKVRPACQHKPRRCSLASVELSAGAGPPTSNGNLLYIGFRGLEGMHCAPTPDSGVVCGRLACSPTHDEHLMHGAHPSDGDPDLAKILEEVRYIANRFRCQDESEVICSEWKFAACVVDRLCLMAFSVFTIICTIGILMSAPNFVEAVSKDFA

[7] = tested on: Mus musculus; experiment: Effect on body temperature of mouse was determined at 0.01 ug/kg; format: functional
[8] = tested on: Mus musculus; experiment: Anesthetic dose in mouse in tail-flick test; format: functional
[9] = target: Neuronal acetylcholine receptor; alpha4/beta2 (Rattus norvegicus, UniProt P09483+P12390); experiment: Inhibition of [3H]epibatidine binding to Nicotinic acetylcholine receptor alpha4-beta2 in rat cerebral cortex; format: tissue-based
Sequence of Neuronal acetylcholine receptor; alpha4/beta2 (P09483 whole entry): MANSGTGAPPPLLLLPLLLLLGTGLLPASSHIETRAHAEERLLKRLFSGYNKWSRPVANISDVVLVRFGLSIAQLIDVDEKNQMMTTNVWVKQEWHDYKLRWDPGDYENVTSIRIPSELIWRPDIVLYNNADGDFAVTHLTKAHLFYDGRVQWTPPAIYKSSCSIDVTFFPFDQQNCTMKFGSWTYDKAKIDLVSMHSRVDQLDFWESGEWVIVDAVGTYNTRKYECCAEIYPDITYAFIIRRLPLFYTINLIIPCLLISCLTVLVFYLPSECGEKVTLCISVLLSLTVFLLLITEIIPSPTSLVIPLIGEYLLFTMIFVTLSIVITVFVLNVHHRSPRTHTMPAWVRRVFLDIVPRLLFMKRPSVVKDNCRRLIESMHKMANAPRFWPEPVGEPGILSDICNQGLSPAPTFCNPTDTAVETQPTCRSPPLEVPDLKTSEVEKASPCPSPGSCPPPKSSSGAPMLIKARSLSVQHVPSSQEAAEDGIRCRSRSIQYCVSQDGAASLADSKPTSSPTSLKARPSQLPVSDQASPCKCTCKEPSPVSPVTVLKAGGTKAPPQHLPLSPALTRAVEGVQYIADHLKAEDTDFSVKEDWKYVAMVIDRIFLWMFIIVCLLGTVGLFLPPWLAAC
Sequence of Neuronal acetylcholine receptor; alpha4/beta2 (P12390 whole entry): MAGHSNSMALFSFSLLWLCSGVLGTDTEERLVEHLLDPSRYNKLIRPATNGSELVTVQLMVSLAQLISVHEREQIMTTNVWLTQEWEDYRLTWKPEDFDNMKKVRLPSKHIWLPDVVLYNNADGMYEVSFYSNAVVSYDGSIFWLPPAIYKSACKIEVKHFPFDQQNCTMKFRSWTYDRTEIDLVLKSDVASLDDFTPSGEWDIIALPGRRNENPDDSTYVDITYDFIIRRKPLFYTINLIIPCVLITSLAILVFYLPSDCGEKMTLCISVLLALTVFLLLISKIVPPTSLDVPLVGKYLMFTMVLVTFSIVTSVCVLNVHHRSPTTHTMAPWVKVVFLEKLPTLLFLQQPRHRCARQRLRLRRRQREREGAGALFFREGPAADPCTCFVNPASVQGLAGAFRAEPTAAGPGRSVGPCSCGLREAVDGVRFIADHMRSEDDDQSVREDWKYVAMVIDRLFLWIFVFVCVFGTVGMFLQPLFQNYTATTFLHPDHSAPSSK

[10] = tested on: Mus musculus; experiment: Anesthetic dose in hotplate test in mouse; format: functional
[11] = tested on: Mus musculus; experiment: Anesthetic effect in mouse in hotplate test at 20 ug/kg; format: functional
[12] = tested on: Mus musculus; experiment: Effect on body temperature of mouse was determined at 0.02 ug/kg; format: functional
[13] = Effect on body temperature of mouse was measured in tail-flick test at the rate 500 ug/kg; format: functional
[14] = tested on: Mus musculus; experiment: Anesthetic effect in mouse in hotplate test at 10 ug/kg; format: functional
[15] = tested on: Mus musculus; experiment: Anesthetic effect in hotplate test in mouse at 10 ug/kg; format: functional
[16] = tested on: Mus musculus; experiment: Effect on body temperature of mouse was determined at 10 ug/kg; format: functional
[17] = Mus musculus, Tail, read-out: ED50

SMILES	ED50 ([1]; Mus musculus, read-out: ED50) [µg/kg]	ED50 ([2]; Mus musculus, read-out: ED50) [µg/kg]	ED50 ([3]; Mus musculus, read-out: ED50) [µg/kg]	ED50 [4, 17] [µg/kg]	Anesthetic effect [5] [%]	Ki [6] [nM]	Effect [7] [%]	AD50 [8] [µg/kg]	Ki [9] [nM]	AD50 [10] [µg/kg]	Anesthetic effect [11] [%]	Effect [12] [%]	Increase [13] [%]	ED50 [1] [µg/kg]	ED50 [2] [µg/kg]	ED50 [4] [µg/kg]	ED50 [3] [µg/kg]	Anesthetic effect [14] [%]	Anesthetic effect [15] [%]	Effect [16] [%]
Clc1ccc(C2CC3CCC2N3)cn1 (centres undefined) [EPIBATIDINE]	4	1	4	6	–	–	–	–	–	–	–	–	–	–	–	–	–	–	–	–
C#Cc1cncc(C2CC3CCC2N3)c1 (centres undefined)	560	1	50	1000	0	5	0	6	0.02	–	–	–	–	–	–	–	–	–	–	–
C=Cc1cncc(C2CC3CCC2N3)c1 (centres undefined)	800	200	450	1000	–	344	0	2.4	0.26	100	–	–	–	–	–	–	–	–	–	–
Fc1cncc(C2CC3CCC2N3)c1 (centres undefined)	50	23	150	80	–	> 1000	–	0.07	–	–	35	0	–	–	–	–	–	–	–	–
Ic1cncc(C2CC3CCC2N3)c1 (single isomer, unassigned; (+))	–	–	–	–	–	179	–	1.2	0.045	–	15	–	6	60	91	780	–	–	–	–
Nc1cncc(C2CC3CCC2N3)c1 (centres undefined)	3100	900	2700	4700	–	732	0	1.6	0.097	6.9	–	–	–	–	–	–	–	–	–	–
Ic1cncc(C2CC3CCC2N3)c1 (stereo in doubt; 3d)	–	–	780	800	–	150	0	0.1	–	0.24	–	–	–	900	130	–	–	–	–	–
Ic1cncc(C2CC3CCC2N3)c1 (single isomer, unassigned; (-))	–	–	–	–	–	156	–	0.11	0.048	–	–	–	–	210	351	940	480	15	–	–
CN1CCC[C@H]1c1cccnc1 [NICOTINE]	650	500	1000	1300	–	–	–	–	–	–	–	–	–	–	–	–	–	–	–	–
Brc1cncc(C2CC3CCC2N3)c1 (centres undefined)	570	100	70	1200	–	164	0	15	0.05	0.78	–	–	–	–	–	–	–	–	–	–
CN1C2CCC1C(c1cncc(I)c1)C2 (centres undefined)	370	30	340	600	–	33.2	–	0.04	0.029	–	–	–	–	–	–	–	–	–	0	0
Clc1cncc(C2CC3CCC2N3)c1 (centres undefined)	230	40	150	300	–	50.6	–	0.2	0.055	15	–	0	–	–	–	–	–	–	–	–
